Read-outs that look alike come from different tables or passages of the source.

In data set [1] the test system is HIV-1 virus strains (e.g. YU2). The following applies: cited from earlier work; for percentage compared to wild-type CCR5, 89.6 / percentage compared to wild-type CCR5, ADA / percentage compared to wild-type CCR5, DH123 / percentage compared to wild-type CCR5, JF-RL / percentage compared to wild-type CCR5, YU2: CCR5 alanine mutant, work of others; for percentage compared to wild-type CCR5, 89.6: HIV-1 strain 89.6; for percentage compared to wild-type CCR5, ADA: HIV-1 strain ADA; for percentage compared to wild-type CCR5, DH123: HIV-1 strain DH123; for percentage compared to wild-type CCR5, JF-RL: HIV-1 strain JF-RL; for percentage compared to wild-type CCR5, YU2: HIV-1 strain YU2.

The next data set concerns the target HIV-1LAI envelope gp120 (Human immunodeficiency virus type 1 group M subtype B, UniProt P03377). The class given is binding. The settings on record: for number of radioactive decays (counts) counted: human CD4 21-mer scan, empty control 2075; for Counts per 20′ Average-background: CCR5 18-mer scan; for Binding Results For Window Length (counts bound-background), 9 / Binding Results For Window Length (counts bound-background), 12 / Binding Results For Window Length (counts bound-background), 15 / Binding Results For Window Length (counts bound-background), 18: STRL33 amino terminus; for Binding Results For Window Length (counts bound-background), 9: 9-mer starting at the first residue of the printed sequence; for Binding Results For Window Length (counts bound-background), 12: 12-mer starting at the first residue of the printed sequence; for Binding Results For Window Length (counts bound-background), 15: 15-mer starting at the first residue of the printed sequence; for Binding Results For Window Length (counts bound-background), 18: 18-mer starting at the first residue of the printed sequence.

Where [2] appears, read: Panel A, 21-mers of CD4, empty control 515 and 617.
Where [3] appears, read: Panel B, 15-mers and 18-mers of CD4, empty control 575.
The mark [4] stands for this setting: CXCR4 18-mer scan, background subtracted, empty control 0.
The mark [5] stands for this setting: CXCR4 18-mer scan, empty control 412.
[6] abbreviates: Panel C, 15-mers and 18-mers of CD4, empty control 556.
Where [7] appears, read: radiolabeled HIV-1LAI gp120, background subtracted.
Setting [8] is: STRL33 18-mer scan, background subtracted, first of two count columns.
Where [9] appears, read: STRL33 18-mer scan, background subtracted, second of two count columns.
Where [10] appears, read: Panel D, 9-mers and 12-mers of CD4, empty control […].
Setting [11] is: Panel E, 9-mers and 12-mers of CD4, empty control 571.

In the case of “MDYAVSSPIYDINYYTSE: CCR5 (1-18) variant Q4A”, in data set [1], the “percentage compared to wild-type CCR5, 89.6” value (“percentage … 89.6” below) is 67%; the “percentage compared to wild-type CCR5, ADA” value (“percentage … ADA” below) is given as 132%; the “percentage compared to wild-type CCR5, DH123” value (“percentage … DH123” below) is reported as 105%; the “percentage compared to wild-type CCR5, JF-RL” value (from here on “percentage … JF-RL”) is given as 111%. In addition, in data set [1], the “percentage compared to wild-type CCR5, YU2” value (shortened to “percentage … YU2”) is on record as 85%.
“MDYQVSSPIADINYYTSE: CCR5 (1-18) variant Y10A”: in data set [1], the “percentage … 89.6” value is given as 10%; the “percentage … ADA” value is reported as 50%; the “percentage … DH123” value was 3%; the “percentage … JF-RL” value is given as 26%. Besides, the “percentage … YU2” value in data set [1] was 2%.
As to “MDYQVSSPIYAINYYTSE: CCR5 (1-18) variant D11A”, in data set [1], the “percentage … 89.6” value is reported as 6%; the “percentage … ADA” value is on record as 27%; the “percentage … DH123” value is listed as 3%; the “percentage … JF-RL” value is 22%. Further, the “percentage … YU2” value in data set [1] was 2%.
Consider “MDYQVSSPIYDINAYTSE: CCR5 (1-18) variant Y14A”, for which, in data set [1], the “percentage … 89.6” value is on record as 6%; the “percentage … ADA” value is listed as 47%; the “percentage … DH123” value is listed as 0%; the “percentage … JF-RL” value is reported as 25%. Also, the “percentage … YU2” value in data set [1] is 12%.
“MDYQVSSPIYDINYATSE: CCR5 (1-18) variant Y15A”: in data set [1], the “percentage … 89.6” value was 1%; the “percentage … ADA” value is 3%; the “percentage … DH123” value is reported as 0%; the “percentage … JF-RL” value is recorded as 3%. For the same substance, in data set [1], the “percentage … YU2” value is 30%.
Turning to “MDYQVSSPIYDINYYTSA: CCR5 (1-18) variant E18A”, in data set [1], the “percentage … 89.6” value is 3%; the “percentage … ADA” value is recorded as 12%; the “percentage … DH123” value is 10%; the “percentage … JF-RL” value is 12%. Besides, the “percentage … YU2” value in data set [1] is 45%.
Turning to “VYKKEGEQVEFSFPLAFTVEK [human CD4 211-231]”, the “COUNTS of radiolabeled gp120 retained” value on HIV-1LAI envelope gp120 (setting [2]) came to 2429 counts. Also, the “number of radioactive decays (counts) counted” value (“number of radioactive decays” for short) on HIV-1LAI envelope gp120 is given as 14740 counts.
Consider WDQGNFPLIIKNLKI, for which the “COUNTS of radiolabeled gp120 retained” value at HIV-1LAI envelope gp120 (setting [3]) is listed as 534 counts.
Consider WDQGNFPLIIKNLKIEDS, for which the “COUNTS of radiolabeled gp120 retained” value at HIV-1LAI envelope gp120 (setting [3]) is recorded as 626 counts.
For “WGPTSPKLMLSLKLENKEAKV [human CD4 331-351]”, the “number of radioactive decays” value at HIV-1LAI envelope gp120 amounted to 2414 counts.
As for WIPALLLTIPDFIFANVS, the “radioactive counts recorded in twenty minutes” value (“radioactive counts recorded” for short) is recorded as 182 counts on HIV-1LAI envelope gp120 (setting [4]) and 594 counts on HIV-1LAI envelope gp120 (setting [5]).
On to WITFDLKNKEVSVKRVTQDPK, for which the “number of radioactive decays” value on HIV-1LAI envelope gp120 amounted to 2126 counts.
With WTCTVLQNQKKVEFK, the “COUNTS of radiolabeled gp120 retained” value at HIV-1LAI envelope gp120 (setting [6]) was found to be 566 counts.
On the same count and under the same terms, then WTCTVLQNQKKVEFKIDI, with 588 counts.
As for WVVAVFASLPGIIFTRSQ [CCR5 segment 153-], the “Counts per 20′ Average-background” value at HIV-1LAI envelope gp120 (setting [7]) is recorded as 87 counts per 20′.
In the case of “Y3A: human CCR5 chemokine receptor with tyrosine 3 substituted by alanine, studied by others (cited 79% value)”, the “percentage of binding of mutant polypeptide compared to wild-type polypeptide, gp120” value in the data set with HIV-1LAI envelope gp120 (CCR5 alanine mutant peptide, radiolabeled HIV-1LAI gp120) is 51.4%. In addition, the “ability to bind HIV-1LAI gp120 envelope protein in comparison to an equivalent wild-type peptide” value with HIV-1LAI envelope gp120 (CCR5 mutant polypeptide) is on record as 51.4%. Moreover, in data set [1], the “percentage … ADA” value is 79%; the “percentage … DH123” value is reported as 42%; the “percentage … JF-RL” value is given as 82%. For the same substance, the “affinity relative to a non-mutated CCR5 chemokine receptor” value in data set [1] (mutated CCR5, data extracted from the work of others) was 79%.
Turning to YAAAQWDFGNTMCQLLTG [CCR5 segment 89-], the “Counts per 20′ Average-background” value at HIV-1LAI envelope gp120 (setting [7]) is recorded as 494 counts per 20′.
Still for that read-out and setting: to YAFVGEKFRNYLLVFFQK [CCR5 segment 297-] belongs 596 counts per 20′.
For the substance “YAGIHEWVFGQVMCKSLL [STRL33 segment 89-106]”, the entries for the “radioactive counts recorded” value at HIV-1LAI envelope gp120 (setting [8]) and at HIV-1LAI envelope gp120 (setting [9]) were 5911.5 counts and 6245.5 counts, respectively.
On to “YAGSGNLTLALEAKTGKLHQE [human CD4 291-311]”, for which the “number of radioactive decays” value at HIV-1LAI envelope gp120 is listed as 1830 counts.
On to “YAMTSFHYTIMVTEAIAY [STRL33 segment 261-278]”, for which the “radioactive counts recorded” value on HIV-1LAI envelope gp120 (setting [8]) came out at 2688.5 counts; at HIV-1LAI envelope gp120 (setting [9]), 2359.5 counts.
Consider “YDSMKEPCFREENANFNK [CXCR4 segment 21-38]”, for which the “radioactive counts recorded” value on HIV-1LAI envelope gp120 (setting [4]) turned out to be 53 counts; at HIV-1LAI envelope gp120 (setting [5]) it was 465 counts.
With YGFSSFNDSSQEEHQAFL, on HIV-1LAI envelope gp120 (background subtracted), the “Binding Results For Window Length (counts bound-background), 9” value was found to be 345 counts; the “Binding Results For Window Length (counts bound-background), 12” value was determined as 745 counts; the “Binding Results For Window Length (counts bound-background), 15” value was 645 counts; the “Binding Results For Window Length (counts bound-background), 18” value was determined as 1138 counts.
YGNVFNLDKLICGYHDEA: the “radioactive counts recorded” value is recorded as −41.5 counts at HIV-1LAI envelope gp120 (setting [8]) and −20.5 counts at HIV-1LAI envelope gp120 (setting [9]).
Consider YHEDYGFSSFNDSSQEEH, for which, at HIV-1LAI envelope gp120 (background subtracted), the “Binding Results For Window Length (counts bound-background), 9” value is listed as 728 counts; the “Binding Results For Window Length (counts bound-background), 12” value is 1950 counts; the “Binding Results For Window Length (counts bound-background), 15” value is 1357 counts; the “Binding Results For Window Length (counts bound-background), 18” value is listed as 985 counts.
YICEVEDQK: the “COUNTS of radiolabeled gp120 retained” value on HIV-1LAI envelope gp120 (setting [10]) was 728 counts.
On the same count and under the same terms, then YICEVEDQKEEV, with 734 counts.
Take YICEVEDQKEEVQLL: the “COUNTS of radiolabeled gp120 retained” value at HIV-1LAI envelope gp120 (setting [3]) is given as 1064 counts.
In the case of YICEVEDQKEEVQLLVFG, the “COUNTS of radiolabeled gp120 retained” value on HIV-1LAI envelope gp120 (setting [3]) was 4611 counts.
With YKKEGEQVE, the “COUNTS of radiolabeled gp120 retained” value on HIV-1LAI envelope gp120 (setting [11]) amounted to 518 counts.
Same read-out and setting: to YKKEGEQVEFSF belongs 548 counts.
As to YKKEGEQVEFSFPLA, at HIV-1LAI envelope gp120 (setting [6]), the “COUNTS of radiolabeled gp120 retained” value is 687 counts.
As to YKKEGEQVEFSFPLAFTV, at HIV-1LAI envelope gp120 (setting [6]), the “COUNTS of radiolabeled gp120 retained” value turned out to be 4839 counts.
Turning to YKKEGEQVEFSFPLAFTVEKL, the “COUNTS of radiolabeled gp120 retained” value at HIV-1LAI envelope gp120 (setting [2]) turned out to be 735 counts.
Consider “YQKKLRSMTDKYRLHLSV [CXCR4 segment 65-82]”, for which the “radioactive counts recorded” value stood at 99 counts on HIV-1LAI envelope gp120 (setting [4]) and 511 counts on HIV-1LAI envelope gp120 (setting [5]).
The corresponding values for “YSIIFLTGIVGNGLVILV [CXCR4 segment 45-62]” are 123 counts and 535 counts.
The corresponding values for YSSVLILAFISLDRYLAI are 157 counts and 569 counts.
With YTINFYTSMLILTCITVD, the “radioactive counts recorded” value at HIV-1LAI envelope gp120 (setting [8]) is 351.5 counts; at HIV-1LAI envelope gp120 (setting [9]), 510.5 counts.
For the substance YVGVWIPALLLTIPDFIF, the entries for the “radioactive counts recorded” value on HIV-1LAI envelope gp120 (setting [4]) and on HIV-1LAI envelope gp120 (setting [5]) were 124 counts and 536 counts, respectively.
